In patent publication US12122787B2, “Fused pyridone compound, and preparation method therefor and use thereof” (SHANGHAI JEMINCARE PHARMACEUTICALS CO., LTD, priority 2019, dated 2024):
pIC50: −log10 of the molar value. Where two headings read alike, the source gives them in different places.

Assays:
Format in all cases: cell-based
[1] = tested on: phosphorylated ERK (Thr202/Tyr204) in NCI-H358 cells expressing mutant RAS(G12C); test: Inhibition of RAS-mediated signal transduction: phosphorylated ERK ELISA in NCI-H358 cells; settings: NCI-H358 cells, 2 hours of treatment, pERK normalized by Janus Green B, read-out: p-ERK IC50 (NCI H358)
Protocol: The cells were treated with or without the compound of the present disclosure (dimethyl sulfoxide, DMSO), and the final concentration of DMSO was guaranteed to be 0.5%. After 2 hours of treatment, the medium was removed and 4% paraformaldehyde (Beyotime catalog number E672002-0100) was added and left to stand for 20 minutes. Cells were washed with PBS after fixation and incubated with precooled methanol for 10 min to permeabilize the cell membrane.
The level of phosphorylated ERK was detected using an enzyme linked immunosorbent assay (ELISA) method. […] The plates were washed 5 times with PBS containing 0.05% Tween 20. […] The reaction was stopped by adding 1 mol/L H2SO4, and the OD value was read at 450 nm by EnVision (PerkinElmer).
The total number of cells per well was detected by Janus Green B staining method. After detecting the level of phosphorylated ERK, the 96-well plate was washed with PBS until colorless, and 0.1% Janus Green B (Abcam catalogue number ab111622) was added to incubate for 10 minutes. After the 96-well plate was washed with double distilled water, 0.1 mol/L HCl was added, then the mixture was shaked and incubated for 10 minutes. The OD value was read at 595 nm by EnVision (PerkinElmer).
The signal of pERK (Thr202/Tyr204) was normalized by the signal value of Janus Green B, and the inhibition percentage after drug treatment relative to DMSO reference was calculated. The percentage values were fitted by a four-parameter dose-response curve and generated IC50 values.

[2] = tested on: NCI-H358 cells expressing KRAS-G12C; test: Growth inhibition of tumor cell line expressing KRAS-G12C (Cell Titer Glo), NCI-H358
Protocol: (§1) The ability of the compounds of the present disclosure to inhibit the growth of cells expressing KRAS-G12C was evaluated by measuring the cell viability and calculating the GI50 values.
(§2) The tumor cell line NCI-H358 (ATCC catalogue number CRL-5807) expressing KRAS-G12C was cultured in RPMI medium supplemented with 10% fetal bovine serum and penicillin/streptomycin, and the tumor cell line MIA PaCa2 (ATCC CRL-1420) expressing KRAS-G12C was cultured in DMEM medium supplemented with 10% fetal bovine serum, 2.5% horse serum, and penicillin/streptomycin.
(§3) Cells NCI-H358 and MIA-Paca2 were inoculated into black transparent bottom 384-well plate (PerkinElmer catalogue number 6007460) with cell density of 1000 and 800 respectively, and the cells were allowed to adhere to the wall overnight (8-12 hours). After the cells adhered to the wall, the experimental group was added with the compound of the present disclosure diluted 5 times the concentration of the working solution (final concentration containing 0.1% dimethyl sulfoxide, i.e. DMSO); the control group was added with the same dilution as the experimental group (final concentration containing 0.1% DMSO). After 72 hours, Cell Titer Glo reagent (Promega catalogue number G7572) was used to detect ATP content according to the instruction method to determine the amount of cell proliferation. The brief operation steps were as follows: the cell plate was taken out and kept at normal temperature for equilibrium for 30 minutes; Cell Titer Glo reagent with the same volume as the culture was added; the culture plate was placed on a shaker for shaking and cracking for 2 minutes; the culture plate was left to stand at room temperature for 10 minutes; then the light signal value was read by microplate reader EnVision (PerkinElmer).
(§4) Data from all experimental groups were used to calculate the respective percent inhibition using the DMSO group, and the GI50 was calculated using the data processing software GraphPad to analyze the inhibition rates produced by the 9 compound dose concentrations diluted at ⅓-fold ratio.

[3] = tested on: MIA PaCa2 cells expressing KRAS-G12C; test: Growth inhibition of tumor cell line expressing KRAS-G12C (Cell Titer Glo), MIA PaCa2; settings: MIA-Paca2, 72 hours
Protocol: as §1, §2, §3, §4

SMILES | pIC50 [1] | GI50 ([2]; NCI-H358, 72 hours) | GI50 ([3]; Homo sapiens, MIA PaCa-2, 72 h) | GI50 [3] | pIC50 ([1]; Homo sapiens, NCI-H358, 2 h) | GI50 ([2]; Homo sapiens, NCI-H358, 72 h)
C=CC(=O)N1C[C@@H]2CN(CCCO)c3c(c4cc(F)c(-c5c(O)cccc5F)c(F)c4n(-c4c(C)ccnc4C(C)C)c3=O)N2C[C@H]1C [Compound 35A] | 7.17 | 0.053 µM | 2.14 µM |  |  | 
C=CC(=O)N1C[C@@H]2COc3c(c4cc(Cl)c(-c5c(O)cccc5F)c(F)c4n(-c4c(C)ccnc4C(C)C)c3=O)N2C[C@H]1C [Compound 18A] | 8.30 | 0.006 µM |  | 0.013 µM |  | 
C=CC(=O)N1C[C@@H]2C(=O)N(C)c3c(c4cc(F)c(-c5c(O)cccc5F)c(F)c4n(-c4c(C(C)C)ncnc4C(C)C)c3=O)N2C[C@H]1C [Compound 20A] |  |  | 0.01 µM |  | 8.40 | 0.004 µM
C=CC(=O)N1C[C@@H]2C(=O)N(C)c3c(c4cc(Cl)c(-c5c(F)cccc5OC)c(F)c4n(-c4c(C)ncnc4C(C)C)c3=O)N2C[C@H]1C [Compound 50] |  |  | 0.094 µM |  | 7.39 | 0.062 µM
C=CC(=O)N1C[C@@H]2CN(CCO)c3c(c4cc(F)c(-c5c(O)cccc5F)c(F)c4n(-c4c(C)ccnc4C(C)C)c3=O)N2C[C@H]1C [Compound 36A-1] |  |  | 0.235 µM |  | 7.80 | 0.032 µM
C=CC(=O)N1C[C@@H]2C(=O)N(CCN(C)C)c3c(c4cc(Cl)c(-c5c(O)cccc5F)c(F)c4n(-c4c(CC)ccnc4C(C)C)c3=O)N2C[C@H]1C (atropisomer, axis not shown) [Compound 54B-1] | 7.92 |  | 0.006 µM |  |  | 0.007 µM
C=CC(=O)N1C[C@@H]2C(=O)N(CCN(C)C)c3c(c4cc(Cl)c(-c5c(O)cccc5F)nc4n(-c4c(C)ccnc4C(C)C)c3=O)N2C[C@H]1C [Compound 29A] |  |  | 0.067 µM |  | 6.91 | 0.044 µM
C=CC(=O)N1C[C@@H]2C(=O)Nc3c(c4cc(F)c(-c5c(O)cccc5F)c(F)c4n(-c4c(C)ccnc4C(C)C)c3=O)N2C[C@H]1C [Compound 22A] | 7.80 | 0.01 µM |  | 0.024 µM |  | 
C=CC(=O)N1C[C@@H]2C(=O)N(CCN(C)C)c3c(c4cc(Cl)c(-c5c(O)cccc5F)c(F)c4n(-c4c(C)ccnc4C(C)C)c3=O)N2C[C@H]1C (atropisomer, axis not shown) [Compound 26D] | 7.17 | 0.082 µM |  | 0.079 µM |  | 
C=CC(=O)N1C[C@@H]2CN(C)c3c(c4cc(F)c(-c5c(O)cccc5F)c(F)c4n(-c4c(C)ccnc4C(C)C)c3=O)N2C[C@H]1C (atropisomer, axis not shown) [Compound 16A-1] | 7.96 |  | 0.055 µM |  |  | 0.012 µM
C=CC(=O)N1C[C@@H]2COc3c(c4cc(F)c(-c5c(O)cccc5F)nc4n(-c4c(C)ccnc4C(C)C)c3=O)N2C[C@H]1C (single isomer, unassigned) [Compound 5B] | 6.89 | 0.21 µM |  | 3.13 µM |  | 
C=CC(=O)N1C[C@@H]2COc3c(c4cc(F)c(-c5c(O)cccc5F)nc4n(-c4c(C)ccnc4C(C)C)c3=O)N2C[C@H]1C (single isomer, unassigned) [Compound 5A] | 7.21 | 0.089 µM |  | 0.252 µM |  | 
C=CC(=O)N1C[C@@H]2COc3c(c4cc(Cl)c(-c5c(O)cccc5F)c(F)c4n(-c4c(C)ccnc4C(C)C)c3=O)N2C[C@H]1C (atropisomer, axis not shown) [Compound 18B] | 6.82 | 0.138 µM |  | 0.468 µM |  | 
C=CC(=O)N1C[C@@H]2C(=O)N(C)c3c(c4cc(Cl)c(-c5c(O)cccc5F)c(F)c4n(-c4c(CC)ccnc4C(C)C)c3=O)N2C[C@H]1C [Compound 53A-1] |  |  | 0.004 µM |  | 8.52 | 0.002 µM
C=CC(=O)N1CC2C(=O)N(CCN(C)C)c3c(c4cc(F)c(-c5c(O)cccc5F)c(F)c4n(-c4c(C)ccnc4C(C)C)c3=O)N2CC1C (stereo not drawn) [Compound 24B] | 7.12 | 0.068 µM |  | 0.112 µM |  | 
C=CC(=O)N1C[C@@H]2CN(CC(N)=O)c3c(c4cc(F)c(-c5c(O)cccc5F)c(F)c4n(-c4c(C)ccnc4C(C)C)c3=O)N2C[C@H]1C [Compound 44A] |  |  | 1.57 µM |  | 6.24 | 0.424 µM
C=CC(=O)N1C[C@@H]2C(=O)N(C)c3c(c4cc(Cl)c(-c5c(O)cccc5F)c(F)c4n(-c4c(C)ncnc4C(C)C)c3=O)N2C[C@H]1C (atropisomer, axis not shown) [Compound 49A-1] | 8.30 | 0.003 µM |  | 0.007 µM |  | 
C=CC(=O)N1C[C@@H]2C(=O)N(CCN(C)C)c3c(c4cc(Cl)c(-c5c(O)cccc5F)c(F)c4n(-c4c(C)ccnc4C(C)C)c3=O)N2C[C@H]1C (atropisomer, axis not shown) [Compound 26B] | 7.72 | 0.022 µM |  | 0.028 µM |  | 
C=CC(=O)N1C[C@@H]2C(=O)N(C)c3c(c4cc(F)c(-c5c(O)cccc5F)c(F)c4n(-c4c(C)ccnc4C(C)C)c3=O)N2C[C@H]1C [Compound 21A-1] | 6.98 |  | 0.156 µM |  |  | 0.091 µM
C=CC(=O)N1C[C@@H]2CN(C)c3c(c4cc(F)c(-c5c(O)cccc5F)nc4n(-c4ccccc4C(C)C)c3=O)N2C[C@H]1C [Compound 10A] |  |  | 0.496 µM |  | 7.20 | 0.184 µM
C=CC(=O)N1C[C@@H]2COc3c(c4cc(Cl)c(-c5c(O)cccc5F)c(F)c4n(C)c3=O)N2C[C@H]1C [Compound 4A] |  |  | 2.41 µM |  | 6.80 | 0.523 µM
C=CC(=O)N1C[C@@H]2C(=O)N(C)c3c(c4cc(Cl)c(-c5c(O)cccc5F)nc4n(-c4c(C)ccnc4C(C)C)c3=O)N2C[C@H]1C [Compound 25A] |  |  | 0.029 µM |  | 7.85 | 0.01 µM
C=CC(=O)N1C[C@@H]2C(=O)N(CCN(C)C)c3c(c4cc(Cl)c(-c5c(F)cccc5OC)nc4n(-c4c(C)ccnc4C(C)C)c3=O)N2C[C@H]1C [Compound 30A] |  |  | 0.231 µM |  | 6.77 | 0.208 µM
C=CC(=O)N1C[C@@H]2COc3c(c4cc(F)c(-c5c(O)cccc5F)c(F)c4n(-c4c(C)ccnc4C(C)C)c3=O)N2C[C@H]1C (atropisomer, axis not shown) [Compound 3B-1] | 7.59 | 0.027 µM |  | 0.166 µM |  | 
C=CC(=O)N1C[C@@H]2COc3c(c4cc(F)c(-c5c(F)cccc5OC)nc4n(-c4c(C)ccnc4C(C)C)c3=O)N2C[C@H]1C (single isomer, unassigned) [Compound 6A] | 7.19 |  | 0.23 µM |  |  | 0.041 µM
C=CC(=O)N1C[C@@H]2C(=O)Nc3c(c4cc(F)c(-c5c(O)cccc5F)c(F)c4n(-c4c(C)ccnc4C(C)C)c3=O)N2C[C@H]1C [Compound 22A-1] | 7.22 | 0.028 µM |  | 0.085 µM |  | 
C=CC(=O)N1C[C@@H]2CN(C)c3c(c4cc(F)c(-c5c(O)cccc5F)c(F)c4n(-c4c(C)ccnc4C(C)C)c3=O)N2C[C@H]1C (single isomer, unassigned) [Compound 16A] | 7.77 |  | 0.211 µM |  |  | 0.02 µM
C=CC(=O)N1C[C@@H]2C(=O)N(CCO)c3c(c4cc(F)c(-c5c(O)cccc5F)c(F)c4n(-c4c(C)ccnc4C(C)C)c3=O)N2C[C@H]1C [Compound 40A] |  |  | 0.056 µM |  | 7.28 | 0.062 µM
C=CC(=O)N1C[C@@H]2C(=O)N(C)c3c(c4cc(Cl)c(-c5c(O)cccc5F)c(F)c4n(-c4c(C)ncnc4C(C)C)c3=O)N2C[C@H]1C [Compound 49A] |  |  | 0.009 µM |  | 8.40 | 0.004 µM
